According to ChEMBL document CHEMBL4706632, “Development of Potential Antitumor Agents from the Scaffolds of Plant-Derived Terpenoid Lactones” (J Med Chem, 2020):
pIC50: −log10 of the molar value.

Tests used:
Format in all cases: functional, cell-based
P388 = assay: Cytotoxicity against mouse P388 cells incubated for 48 hrs by MTT assay; details: P388, 48 h
PANC-1 [1] = assay: Cytotoxicity against human Panc-1 cells incubated for 48 hrs by CCK8 assay; details: PANC-1, 48 h
HeLa [2] = assay: Cytotoxicity against human HeLa cells incubated for 48 hrs by SRB assay
HepG2 [3] = assay: Cytotoxicity against human HepG2 cells incubated for 48 hrs by SRB assay; details: HepG2, 48 h
IMR-32 = assay: Cytotoxicity against human IMR-32 cells incubated for 48 hrs by SRB assay; details: IMR-32, 48 h
HepG2 [4] = assay: Cytotoxicity against human HepG2 cells by MTT assay
BGC-823 = assay: Cytotoxicity against human BGC-823 cells by MTT assay
HCT-116 [5] = assay: Cytotoxicity against human HCT-116 cells by MTT assay
L1210 = assay: Cytotoxicity against mouse L1210 cells
MDA-MB-231 [6] = assay: Cytotoxicity against human MDA-MB-231 cells incubated for 72 hrs by MTT assay; details: MDA-MB-231, 72 h
MCF7 [7] = assay: Cytotoxicity against human MCF-7 cells incubated for 72 hrs by MTT assay; details: MCF7, 72 h
SW1990 = assay: Antiproliferative activity against human SW1990 incubated for 72 hrs by sulphorhodamine B assay; details: SW1990, 72 h
HCT-116 [8] = assay: Antiproliferative activity against human HCT-116 cells incubated for 72 hrs by WST-1 assay; details: HCT-116, 72 h
PANC-1 [9] = assay: Cytotoxicity against human Panc-1 cells incubated for 72 hrs by sulphorhodamine B assay; details: PANC-1, 72 h
[10] = Antiproliferative activity against human Panc-28 cells incubated for 72 hrs by MTT assay; details: MDA-Panc-28, 72 h
MDA-MB-435 = assay: Antiproliferative activity against human MDA-MB-435 cells incubated for 48 hrs by [3H]-thymidine incorporation assay
MCF7 [11] = assay: Antiproliferative activity against human MCF7 cells incubated for 48 hrs by [3H]-thymidine incorporation assay
MDA-MB-231 [12] = assay: Cytotoxicity against human MDA-MB-231 cells incubated for 48 hrs by MTT assay; details: MDA-MB-231, 48 h
A2058 = assay: Cytotoxicity against human A2058 cells incubated for 48 hrs by MTT assay; details: A2058, 48 h
HT-29 [13] = assay: Cytotoxicity against human HT-29 cells incubated for 48 hrs by MTT assay; details: HT-29, 48 h
MCF7 [14] = assay: Cytotoxicity against human MCF7 cells incubated for 48 hrs by alamarblue reagent based assay; details: MCF7, 48 h
HepG2 [15] = assay: Cytotoxicity against human HepG2 cells incubated for 48 hrs by alamarblue reagent based assay; details: HepG2, 48 h
HT-29 [16] = assay: Antiproliferative activity against human HT-29 cells
HeLa [17] = assay: Antiproliferative activity against human HeLa cells
HL-60 = assay: Antiproliferative activity against human HL-60 cells
LNCaP C4-2B = assay: Cytotoxicity against human LNCaP C4-2B cells incubated for 48 hrs by MTT assay
HCT-15 = assay: Cytotoxicity against human HCT-15 cells incubated for 48 hrs by MTT assay; details: HCT-15, 48 h

## C[C@H](CO)[C@H]1OC(=O)C=C2[C@@]3(C)[C@H](O)CC[C@]4(C)C(=O)O[C@H]([C@H]5O[C@@]251)[C@H]34
P388
  pIC50: 5.68

## CC(C)[C@]12O[C@H]1[C@@H]1O[C@]13[C@]1(O[C@H]1C[C@H]1C4=C(CC[C@@]13C)C(=O)OC4)[C@@H]2OCOP(=O)(O)O [MINNELIDE]
PANC-1 [1]
  pIC50: 6.70

## C=C1[C@@H]2CC[C@@]3(C)[C@H](c4ccoc4)OC(=O)C[C@]13O[C@H]1C[C@H](OC(C)=O)C(C)(C)[C@H](CC(=O)OC)[C@]12C
HeLa [2]
  pIC50: 4.21
HepG2 [3]
  pIC50: < 4.00
IMR-32
  pIC50: 7.66

## CC(C)(O)[C@]12O[C@H]1[C@@H]1O[C@]13[C@]1(O[C@H]1C[C@H]1C4=C(CC[C@@]13C)C(=O)OC4)[C@@H]2O
HepG2 [4]
  pIC50: 6.11
BGC-823
  pIC50: 6.70
HCT-116 [5]
  pIC50: 6.41

## C=C1[C@@H](O)[C@@]2(O)OC[C@@]34[C@H]1[C@@H](OC(=O)/C=C/CCCCCCCC)C(=O)O[C@@H]3C[C@H]1C(C)=CC(=O)[C@@H](O)[C@]1(C)[C@@H]24
L1210
  pIC50: 7.05

## COC(=O)[C@@]12OC[C@]34[C@H]([C@@H](O)[C@@H]1O)[C@@]1(C)CC(=O)C(O)=C(C)[C@@H]1C[C@H]3OC(=O)[C@H](OC(=O)C=C(C)C)[C@@H]24
MDA-MB-231 [6]
  pIC50: 7.09
MCF7 [7]
  pIC50: 7.08
SW1990
  pIC50: 7.00
HCT-116 [8]
  pIC50: 7.17
PANC-1 [9]
  pIC50: 6.44

## CC1(C)O[C@H]2CC(=O)OC[C@]23[C@H]2CC[C@@]4(C)[C@H](c5ccoc5)OC(=O)[C@H]5O[C@]54[C@]2(C)C(=O)C[C@@H]13 [LIMONIN]
[10]
  pIC50: 4.38
MDA-MB-435
  pIC50: 4.59
MCF7 [11]
  pIC50: 5.37

## CC(C)[C@H]1OC(=O)C=C2[C@@]13O[C@@H]3[C@H]1OC(=O)[C@@]3(C)CCC[C@@]2(C)[C@@H]13
P388
  pIC50: 6.62

## C=C1[C@@H](O)[C@@]2(O)OC[C@@]34[C@H]1[C@@H](OC(=O)/C=C(\C)CCCCC)C(=O)O[C@@H]3C[C@H]1C(C)=CC(=O)[C@@H](O)[C@]1(C)[C@@H]24
L1210
  pIC50: 7.05

## C=C1CC[C@@H]2[C@](C)(COC(=O)CN(C)c3ccc([N+](=O)[O-])c4nonc34)[C@H](O)CC[C@@]2(C)[C@@H]1C/C=C1/C(=O)OC[C@H]1OC(C)=O
MDA-MB-231 [12]
  pIC50: 5.01
A2058
  pIC50: 5.35
HT-29 [13]
  pIC50: 4.92

## COC(=O)[C@@]12OC[C@]34[C@H]([C@@H](O)[C@@H]1O)[C@@]1(C)C=C(O[C@@H]5O[C@H](CO)[C@@H](O)[C@H](O)[C@H]5O)C(=O)[C@@H](C)[C@@H]1C[C@H]3OC(=O)[C@H](OC(=O)CC(C)C)[C@@H]24
MDA-MB-231 [6]
  pIC50: < 4.30
MCF7 [7]
  pIC50: < 4.30
SW1990
  pIC50: < 4.00
PANC-1 [9]
  pIC50: < 4.00

## C/C1=C\CC[C@@]2(C)O[C@H]2[C@H]2OC(=O)C(CNC(Cc3ccc(N(CCCl)CCCl)cc3)C(=O)O)[C@@H]2CC1 (stereo partly specified)
MCF7 [14]
  pIC50: 5.74
HepG2 [15]
  pIC50: 6.59

## COC(=O)[C@@]12OC[C@]34[C@H]([C@@H](O)[C@@H]1O)[C@@]1(C)CC(=O)C(O)=C(C)[C@@H]1C[C@H]3OC(=O)[C@H](OC(=O)CC(C)C)[C@@H]24 [BRUCEINE A]
MDA-MB-231 [6]
  pIC50: 6.64
MCF7 [7]
  pIC50: 6.74
HT-29 [16]
  pIC50: 5.51
HeLa [17]
  pIC50: 5.96
HCT-116 [8]
  pIC50: 7.09
HL-60
  pIC50: 6.89

## COC(=O)[C@@]12OC[C@]34[C@H]([C@@H](O)[C@@H]1O)[C@@]1(C)CC(=O)C(O)=C(C)[C@@H]1C[C@H]3OC(=O)[C@H](OC(=O)/C=C(\C)C(C)C)[C@@H]24 [BRUCEANTIN]
HT-29 [16]
  pIC50: 7.66
HeLa [17]
  pIC50: 7.54

## C=C1C(=O)O[C@@H]2C3O[C@]3(C)CC/C=C(\C)CC[C@@H]12 (stereo partly specified)
MCF7 [14]
  pIC50: 4.96
HepG2 [15]
  pIC50: 4.77

## CC1(C)CCC[C@]2(C)[C@@H]1CC[C@@]13O[C@@H]1C1=C(CO)C(=O)OC1=C[C@@H]23
MDA-MB-231 [12]
  pIC50: 5.06
LNCaP C4-2B
  pIC50: 5.66
HCT-15
  pIC50: 4.89
